{"source": "patent US20190060249A1", "about": "(priority 2017, published 2019)", "key": {"[1]": {"system": "mouse model of radiation-induced hyposalivation", "test": "Mouse model of radiation-induced hyposalivation", "type": "in vivo", "text": "In one experiment, mice were irradiated with a single dose of 15 Gy and in a second experiment with 6 Gy/d for 5 d for a total of 30 Gy. […] Starting 8 weeks after radiation, the control and treatment groups were further segmented into four groups.\nOn day 5 of the 30 Gy radiation dose, SMG were removed, fixed, and stained for cleaved caspase 3 to determine the extent of apoptosis (FIG. 4E).\nSaliva collection: Female C57/BL-6 mice, 8-10 weeks old, were ordered from Jackson Labs. […] 15 Gy single dose or 30 Gy fractionated over 5 d (6 Gy/d) were delivered to the SMG with the rest of the body lead shielded. Stimulated saliva was measured as described in, Lombaert, I. M., Brunsting, J. F., Wierenga, P. K., Faber, H., Stokman, M. A., Kok, T., Visser, W. H., Kampinga, H. H., de Haan, G., and Coppes, R. P. (2008) Rescue of salivary gland function after stem cell transplantation in irradiated glands. PloS one 3, e2063. Mice were anesthetized with a ketamine (80 mg/kg) and xylazine (16 mg/kg) mixture delivered by intraperitoneal injection and subcutaneously injected with 2 mg/kg pilocarpine. Saliva was collected for 15 minutes. Saliva volume was calculated by assuming […] and was normalized to the mouse body weight by dividing the total collected saliva volume by the mass of the mouse (kg).\nPeriodic acid schiff staining and acinar quantification: SMG were removed from mice, fixed in 10% formalin for 24 h, and paraffin-embedded. 10 images per group were taken at random at 30× magnification using a Leica DM6000 B microscope. Acinar regions were quantified using RT_Image software (Graves, E. E., Quon, A., and Loo, B. W., Jr. (2007) RT_Image: an open-source tool for investigating PET in radiation oncology. Technology in cancer research & treatment 6, 111-121). Images were separated into red, green, and blue color channels, blurred using a 20 pixel box filter, and segmented using an intensity contour of 110 with a minimum area of 100 um^2. Acinar area was calculated as a percentage of acinar area relative to the area of the microscopy field.\nCleaved caspase 3 staining: SMG were removed from mice, fixed in 10% formalin for 24 h, and paraffin-embedded. Sections were stained with Caspase 3 rabbit antibody (Cell Signaling, 9664), 1:200 dilution, and DAPI. Three random images using red and blue filters were taken at 100× magnification with a Leica DM6000 B microscope from each gland (6-8 glands/group) and quantified by counting cleaved caspase-3 positive (red) cells per field.\nRNA-sequencing: Samples were extracted using Qiagen miRNeasy Kit (217084). Extracted samples were assessed for quality using Agilent Pico-RNA bio-analyzer chip (5067-1513). The Smarter Ultra Low Input RNA kit (Clontech, 634848) was used to generate cDNA from total RNA. Amplified cDNA was purified using SPRI Ampure Beads from Beckman Coulter, and quality and quantity were measured using a High Sensitivity DNA chip on an Agilent 2100 Bioanalyzer. cDNA was sheared to an average length of 300 BP using a Covaris S2, and libraries were generated following the Clontech Low Input Library Prep kit (634947). Indexed libraries were pooled and quantitated for sequencing. Sequencing data was generated on an Illumina HiSeq 4000. The processed RNAseq reads were imported into BRB-ArrayTools, an integrated package for the visualization and statistical analysis of gene expression data developed by Dr. Richard Simon and BRB-ArrayTools Development Team. The imported expression values were log2-transformed and subjected to quantile normalization by Robust Multi-chip Average (RMA). Genes that show differential expression between those untreated and irradiated (univariate p-value <0.01) were selected. To identify functional networks and pathways enriched in these significant genes, these genes were analyzed using MetaCore™. For heatmap generation the Clustering function of ArrayTools was used, with experimental samples in fixed grouping and order, and genes ordered by hierarchical clustering."}, "[2]": {"system": "SSC90 (HPV-positive) head and neck squamous cell carcinoma cell line", "test": "Xenograft study, SSC90", "type": "in vivo, SCID mice", "conditions": "Alda-341 from one week ahead of irradiation, during and post; 30 Gy over 5 fractions", "protocol": "Xenograft study: Six-week old SCID mice were purchased from the Jackson laboratory and five mice per group were used. SCC90 and SAS cells (2×10^6 cells/injection) were implanted into both flanks of each mouse. Alda-341 treated one week ahead of irradiation and continued during and post radiation. Total 30 Gy over 5 fractions in a week was delivered to the tumor with the rest of the body shielded. Tumor size was measured every 1-2 days. Tumor volume was calculated by the formula (π×length×width×height)/6."}, "[3]": {"target": "T1, ALDH4A1 (Homo sapiens, UniProt P30038)", "T1 sequence (P30038 25-563)": "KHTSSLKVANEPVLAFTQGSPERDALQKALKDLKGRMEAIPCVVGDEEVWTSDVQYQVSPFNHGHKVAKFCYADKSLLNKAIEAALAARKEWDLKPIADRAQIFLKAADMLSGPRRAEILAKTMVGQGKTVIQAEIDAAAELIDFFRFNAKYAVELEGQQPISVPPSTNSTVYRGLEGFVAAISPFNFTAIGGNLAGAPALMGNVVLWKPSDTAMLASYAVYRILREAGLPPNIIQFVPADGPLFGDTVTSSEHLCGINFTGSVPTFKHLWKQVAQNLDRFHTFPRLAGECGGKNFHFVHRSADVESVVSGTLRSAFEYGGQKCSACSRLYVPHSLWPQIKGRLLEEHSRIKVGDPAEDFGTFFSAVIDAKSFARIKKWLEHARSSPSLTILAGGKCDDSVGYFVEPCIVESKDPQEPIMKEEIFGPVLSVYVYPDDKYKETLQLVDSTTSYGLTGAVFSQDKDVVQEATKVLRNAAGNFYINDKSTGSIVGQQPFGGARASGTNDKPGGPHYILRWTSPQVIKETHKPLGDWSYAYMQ", "test": "ALDH enzymatic assay, recombinant ALDH4A1", "type": "biochemical", "conditions": "5 μg/ml recombinant enzyme, 10 mM acetaldehyde, 20 μM Alda-341", "protocol": "ALDH enzymatic assay: ALDH1A1, ALDH1A2, 2, 3A1, 3A2, 4A1, 5A1, 7A1 were measured as previously described using 5 μg/ml of recombinant protein (Chen, C. H., Cruz, L. A., and Mochly-Rosen, D. (2015) Pharmacological recruitment of aldehyde dehydrogenase 3A1 (ALDH3A1) to assist ALDH2 in acetaldehyde and ethanol metabolism in vivo. Proceedings of the National Academy of Sciences of the United States of America 112, 3074-3079). […] Assays were conducted in 50 mM NaPPi buffer (pH 7.4) in the presence of 2.5 mM NAD^+ and 10 mM substrate and measured in triplicate at 25° C. Dose response curve fits and EC50's were calculated using GraphPad Prism 7 software."}, "[4]": {"conditions": "EpCAM+ cells isolated from SMG 2 weeks after 30 Gy"}}}
{"compound": "C=C(C)[C@H]1CC=C(C)CC1", "note": "[Alda-341, D-limonene]", "values": [{"measurement": "saliva production after radiation", "setting": "[1]; 10% Alda-341 in chow from 1 w prior to radiation and continuously after, single 15 Gy or 30 Gy (6 Gy/d for 5 d)", "result": "retained near baseline saliva production levels"}, {"measurement": "saliva production, Alda-341 stopped", "setting": "[1]; Alda-341 from 24 h after radiation, stopped 8 weeks after radiation", "result": "rapid decline in saliva production"}, {"measurement": "saliva levels, continuous Alda-341", "setting": "[1]; Alda-341 starting 24 h after the final dose of radiation, continuous, 20 weeks", "result": "sustained significantly higher saliva levels over 20 weeks"}, {"measurement": "saliva production, Alda-341 begun late", "setting": "[1]; Alda-341 treatment begun 8 weeks after radiation", "result": "did not show significant improvement in saliva production"}, {"measurement": "apoptotic-related gene expression (RNA-sequencing)", "setting": "[1]; [4]", "result": "a decrease in apoptotic-related gene expression"}, {"measurement": "glutathione metabolism (RNA-sequencing)", "setting": "[1]; [4]", "result": "increased glutathione metabolism"}, {"measurement": "immune response (RNA-sequencing)", "setting": "[1]; [4]", "result": "decreased immune response"}, {"measurement": "more acinar cell preservation (PAS staining) vs group that never received Alda-341", "setting": "[1]; after 20 weeks, continuous Alda-341", "result": "~70", "unit": "%"}, {"measurement": "improvement in sphere-forming ability of dissociated SMG vs no treatment", "setting": "[1]; continuous Alda-341 after radiation", "result": "~30", "unit": "fold"}, {"measurement": "number of apoptotic cells (cleaved caspase 3 staining)", "setting": "[1]; day 5 of the 30 Gy radiation dose, Alda-341 before radiation", "result": "reduced the number of apoptotic cells to near non-irradiated levels"}, {"measurement": "preservation of acinar area", "setting": "[1]; eight weeks after 30 Gy, Alda-341 from 1 w prior to radiation", "result": 90, "unit": "%"}, {"measurement": "tumor growth and protection of tumors from radiation, SSC90 xenograft", "setting": "[2]", "result": "did not increase tumor growth or protect tumors from radiation"}, {"measurement": "catalytic activity of ALDH4A1", "setting": "[3]", "result": "did not increase"}]}
